Data taken from PubChem BioAssay AID179 (DTP/NCI, 2004).
Calls of active or inactive are those of the source.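 How the source made its calls: active means compounds giving half or more protection of infected cells from virus-caused growth loss, again on retest; inactive means the rest.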 Where a SMILES comes first, the peptide text is derived from it. The star is where a group is joined. Boc = CC(C)(C)OC(=O)*

System: CEM cells HIV-1 protection, formazan growth assay
Assay: NCI AIDS Antiviral Assay
Conditions: for IC50: measured here: growth of uninfected CEM cells
Summary of the method: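 Five concentrations of each compound were applied to infected and uninfected human CEM cells. Protection from HIV-1 was judged from growth measured with a soluble formazan assay.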

| Structure (SMILES) | EC50 | IC50 | outcome |
| --- | --- | --- | --- |
| NC(CCC(=O)NC(CSSCC(NC(=O)CCC(N)C(=O)O)C(=O)O)C(=O)O)C(=O)O (stereo unspecified) | > 200 µM | > 200 µM |  |
| CC(=O)C1CCC2C1(C)CC1OC13C21C=CC2(CC(O)CCC23C)C2C(=O)OC(=O)C21 (stereo unspecified) | > 302 µM | > 302 µM |  |
| C/C(O)=C(/C=N/C(=S)Nc1ccccc1)C(=O)Nc1ccccc1C | > 200 µM | 195 µM |  |
| Cc1cc2c(C(C)C)c(O)c(O)c(C=Nc3cccc(C(F)(F)F)c3)c2c(O)c1-c1c(C)cc2c(C(C)C)c(O)c(O)c(C=Nc3cccc(C(F)(F)F)c3)c2c1O |  |  | inactive |
| CCc1n[nH]c(=O)n1NC(=O)c1ccccc1C(=O)O | > 200 µM | > 200 µM |  |
| Cc1ccc2c(c1)[nH]c(=S)n2C=C1C(=O)CC(C)(C)CC1=O | > 200 µM | > 200 µM |  |
| Cn1c(=O)oc2cc(C(O)CN3CCN(Cc4ccccn4)CC3)c(Cl)cc21 (stereo unspecified) | > 200 µM | 195 µM |  |
| NC(=O)CNC(=O)[C@@H]1CC(OCCC(=O)O)CN1C(=O)C1CCCN1C(=O)OCc1ccccc1 (stereo partly specified) | > 200 µM | > 200 µM |  |
| Cc1ccc(C)n1-n1c2ccccc2c2ccccc21 | > 100 µM | > 100 µM |  |
| C=CCn1c(=O)c(C(=O)Nc2nc(C34CC5CC(CC(C5)C3)C4)cs2)c(O)c2ccccc21 | > 200 µM | 77.6 µM |  |
| CC(=O)OC1CC2C(C)(C)CCC[C@]2(C)C2=C1C(O)=C(C(C)C)C(=O)C2=O (stereo partly specified) |  |  | inactive |
| O=C(NO)c1cccc(OCc2ccc(Br)cc2)c1 | > 200 µM | 9.12 µM |  |
| O=c1[nH]nc(-c2cccc([N+](=O)[O-])c2)[nH]1 | > 200 µM | 148 µM |  |
| CN(C)CCOc1ccc(/C(=C(/CCCl)c2ccccc2)c2ccccc2)cc1 | > 43.7 µM | 0.38 µM |  |
| O=C(Nc1ccc(CC2=NCCCN2)cc1)c1ccc(C(=O)Nc2ccc(CC3=NCCCN3)cc2)cc1 | > 200 µM | 112 µM |  |
| COc1ccc(N2C(=O)[C@H]3[C@H]4CC(C(C)(C)C)CC[C@H]4c4c(n(C)c5ccccc45)[C@H]3C2=O)cc1 (stereo partly specified) | > 15.1 µM | > 15.1 µM |  |
| CC(=O)OC12C(C)=C(C)C(=O)N1c1ccccc1N2C(C)=O (stereo unspecified) |  |  | inactive |
| NC1CS(=O)(=O)CC1O (stereo unspecified) | > 200 µM | > 200 µM |  |
| CS(=O)(=O)C(C#N)c1nc2ccccc2nc1Cl (stereo unspecified) | > 200 µM | > 200 µM |  |
| O=c1[nH]c(=O)n(C2OC(CO)C(O)C2O)c2ncc(-c3ccc(-c4ccccc4)cc3)nc12 (stereo unspecified) | > 20 µM | > 20 µM |  |
| COc1cc2c(oc(=O)c3cc4cc([Si](C)(C)C)oc4c(OC)c32)c2cccc(O)c12 | > 1.2 µM | > 1.2 µM |  |
| COC(=O)/C(=N/NC(N)=O)C(C(=O)C(=O)Nc1ccc(C)cc1)c1nc2ccc(C(=O)c3ccccc3)cc2[nH]c1=O (stereo unspecified) | > 33.1 µM | > 33.1 µM |  |

| Structure (SMILES) | EC50 | IC50 | outcome |
| --- | --- | --- | --- |
| Nc1[nH]nc2nc3n(c(=O)c12)CCCCC3 | > 45.7 µM | > 45.7 µM |  |
| CCN(CC)CCNc1ccc([N+](=O)[O-])c2nc3ccccc3c(N)c12 | > 100 µM | 0.575 µM |  |
| COC1=C(OC)C(=O)C2=C(OCCCO2)C1=O | > 389 µM | 2 µM |  |
| COC(=O)C1=C2c3ccccc3NC(=O)N2NC1C(=O)OC (stereo unspecified) | > 550 µM | 501 µM |  |
| COC1OC(CCC2NC(CO)C(O)C(O)C2O)C(O)C(O)C1O (stereo unspecified) | > 200 µM | > 200 µM |  |
| Cc1nc2c(=S)[nH]ncc2[nH]1 | > 200 µM | > 200 µM |  |
| COc1ccc(/C=C/C(=O)OCCc2ccccc2)cc1OC | > 25.1 µM | > 25.1 µM |  |
| CC(NC(=O)C(NC(=O)OC(C)(C)C)C(C)C)C(=O)N1CCCC1C(=O)NCC(=O)NC(C(=O)NCC(=O)O)C(C)C (stereo unspecified) (Boc-VAPGVG-OH; configuration not given here) | > 200 µM | > 200 µM |  |
| CC(O)C(NCNC(=O)C1=C(O)C2(O)C(=O)C3=C(O)c4c(O)cccc4C(C)(O)C3CC2C(N(C)C)C1=O)C(=O)O (stereo unspecified) | > 37.2 µM | > 37.2 µM |  |
| O=[N+]([O-])c1ccc2cnn(CCO)c2c1 | > 200 µM | > 200 µM |  |
| COc1c(C)cc2c(C(C)C)c(O)c(O)c(C=O)c2c1O | > 871 µM | 14.8 µM |  |
| c1ccc(N2CCN(c3ccccn3)CC2)nc1 | > 100 µM | > 100 µM |  |
| COc1cc2c(cc1OC)C(C1CC1)ON(C)CC2 (stereo unspecified) | 158 µM | > 200 µM |  |
| CCOC(=O)C1(C/C=C(/C)Cl)CCCC1=O (stereo unspecified) | > 204 µM | > 204 µM |  |
| O=[N+]([O-])c1nccn1CCCN=c1c2ccccc2n(O)c2ccccc12 | > 200 µM | 46.8 µM |  |
| O=C1C=CC2OC(c3ccccc3)[C@H](O)C2O1 (stereo partly specified) | > 1070 µM | 6.92 µM |  |
| O=C(/C=C/c1cc(F)ccc1F)OCCc1ccccc1 |  | 141 µM | inactive |
| CCOC(=O)c1ccc(N2C(=O)c3cccc4cccc(c34)C2=O)c([N+](=O)[O-])c1 | > 100 µM | 37.2 µM |  |
| N#C/C(=C/N1C(=O)/C(=C/c2ccc([N+](=O)[O-])cc2)SC1=S)C(N)=O | > 200 µM | 16.2 µM |  |
| O=C(/C=C/c1ccc(O)c(O)c1)CC(=O)/C=C/c1ccc(O)c(O)c1 | > 200 µM | 10.2 µM |  |
| NC(=O)c1c2n(c3ncnc(N)c13)C1OC(CO)C(O)C1S2 (stereo unspecified) | > 389 µM | > 389 µM |  |
| Cc1ccc(/C([O-])=C(/C(=S)Nc2ccccc2)[n+]2ccccc2)cc1 | > 200 µM | > 200 µM |  |

| Structure (SMILES) | EC50 | IC50 | outcome |
| --- | --- | --- | --- |
| CCOC(=O)CC1(O)C(=O)N(Cc2ccccc2)c2ccccc21 (stereo unspecified) | > 200 µM | > 200 µM |  |
| N#CC1Nc2ccccc2[C@@H](O)C1O (stereo partly specified) | > 1320 µM | 240 µM |  |
| COC(=O)[C@]1(C)C(OC)=CC(=O)C2C1[C@H]1CCC[C@@H]21 (stereo partly specified) |  |  | inactive |
| O=S(Cc1ccccc1)c1nc2ccccc2nc1-c1cccs1 (stereo unspecified) | > 74.1 µM | 13.5 µM |  |
| O=C1NC2OC(CO)C(O)C(O)C2O1 (stereo unspecified) | > 200 µM | > 200 µM |  |
| COc1ccc(C(CC(=O)c2cccs2)C(=O)c2ccc3c(c2)OCO3)cc1 (stereo unspecified) | > 200 µM | 102 µM |  |
| CCN(CC)CCC(=O)NC1c2ccccc2Oc2ccccc21 | > 398 µM | 219 µM |  |
| COc1ccc2c3c1OC1C4(OC)C=CC5(c6c(OC)ccc(O)c64)C(C2)N(C)CCC315 (stereo unspecified) | > 100 µM | 53.7 µM |  |
| O=C1C2CSCC1CN(Cc1ccccc1)C2 | > 525 µM | > 525 µM |  |
| Cc1cccc(SCc2nc3ccccc3c(C)[n+]2[O-])c1 | 13.5 µM | 52.5 µM |  |
| S=c1n(-c2ccc(Cl)cc2)c2/c(=N\Nc3cc(Cl)ccc3Cl)c(n1-c1ccccn1)=NCCN=2 | > 200 µM | > 200 µM |  |
| COc1cc2oc(-c3ccccc3)cc(=O)c2c(O)c1C | > 33.1 µM | > 33.1 µM |  |
| Cn1cnc([N+](=O)[O-])c1Sc1nc2ccccc2o1 | > 26.3 µM | 2.75 µM |  |
| [O-]c1on[n+]2c1c(Nc1ccc(Cl)cc1)nc1ccccc12 | > 115 µM | > 115 µM |  |
| Cc1nc2cc(C(=O)NC=O)c3n[nH]nc3c2n1C | > 200 µM | > 200 µM |  |
| O=C1C2=Cc3ccccc3OC2(O)Oc2cc(O)cc(O)c21 (stereo unspecified) | > 200 µM | 91.2 µM |  |
| CCSC(=O)n1nc(Cl)c2cc([N+](=O)[O-])ccc21 | > 200 µM | > 200 µM |  |
| O=c1c2ncn(CCCl)c2n(-c2ccccc2)c(=S)n1-c1ccccc1 | > 200 µM | > 200 µM |  |
| CC(=O)N1OC(C)CC1Nc1ccc(Br)cc1 (stereo unspecified) | > 200 µM | 25.1 µM |  |
| CCCCNC(=O)n1ncc2cc([N+](=O)[O-])c([N+](=O)[O-])cc21 | > 200 µM | 25.7 µM |  |
| CCOC(=O)c1ccc(-c2onc(C)c2Br)[nH]1 | > 200 µM | 39.8 µM |  |
| COC(=O)/C=C/c1c[nH]c2nccnc12 | > 166 µM | 53.7 µM |  |

| Structure (SMILES) | EC50 | IC50 | outcome |
| --- | --- | --- | --- |
| Cc1ccc(C(=O)C2C=C(c3ccc(C)cc3)SC3C=CCC32)cc1 (stereo unspecified) | > 200 µM | 14.8 µM |  |
| CCCCCC1CC=CC(NC(=O)OCc2ccccc2)C1/C=C/CCCC1OCCO1 (stereo unspecified) |  |  | inactive |
| Cc1cc(Cl)ccc1NC(=O)/C(CC(=O)CC(c1ccccc1)c1c(O)c2ccccc2oc1=O)=N\O (stereo unspecified) | > 132 µM | 95.5 µM |  |
| Cc1ccccc1NC(=O)/C(C#N)=N\Nc1nc[nH]c1C(N)=O | > 200 µM | 0.257 µM |  |
| COc1cc(/C=C/c2ccc(OC)c(OC)c2)cc(OC)c1 |  |  | inactive |
| O=[N+]([O-])c1ccc(-c2ccc(-c3csc(Nc4ccccc4)n3)o2)cc1 | > 37.2 µM | 6.76 µM |  |
| S=C1CC(c2ccccc2)Sc2ccccc2N1 (stereo unspecified) | > 200 µM | 95.5 µM |  |
| CCOP(=O)(OCC)/C(C#N)=C/c1cccn1Cc1ccccc1 | > 200 µM | 25.1 µM |  |
| COC(=O)C1=NOC2C(=O)N(c3ccccc3)C(=O)C12 (stereo unspecified) | > 200 µM | > 200 µM |  |
| COC(=O)C1C2C=CC(C2)N1S(=O)(=O)c1ccccc1 (stereo unspecified) | > 200 µM | > 200 µM |  |
| O=C(O)C(C(F)(F)F)C(F)(F)F (tested in a mixture with another compound) | > 200 µM | > 200 µM |  |
| CCOC(=O)/C(C#N)=C(N)/C(=N\Nc1cccc(C(F)(F)F)c1)C(=O)OCC |  |  | inactive |
| CC1(C)OC(=O)C(=Cc2cccc(Br)c2)C(=O)O1 | > 794 µM | 1.86 µM |  |
| Cc1ccc(-c2nc(SCC(=O)O)n[nH]2)cc1 | > 1000 µM | 708 µM |  |
| O=C(NCCCCCCNC(=O)n1cc(F)c(=O)[nH]c1=O)NCCCOCCOCCOCCOCCOCCOCCOCCOCCOCCOCCOCCOCCOCCOCCOCCOCCOCCOCCOCCOCCOCCCNC(=O)C(O)C(O)C(OC1OC(CO)C(O)C(O)C1O)C(O)CO (stereo unspecified) |  |  | inactive |
| Cc1cc(=O)c2c(O)cc3c(c2o1)CC=C(COC1OC(COC2OC(CO)C(O)C(O)C2O)C(O)C(O)C1O)CO3 (stereo unspecified) | > 417 µM | > 417 µM |  |
| COc1ccc(C(=O)/C=C/c2cccnc2)cc1OC | > 200 µM | 2.75 µM |  |
| COc1ccc(-c2onc(-c3c(C)cc(C)cc3C)c2C2=NCCN2)cc1 | > 72.4 µM | > 72.4 µM |  |
| CN(/N=C\c1ccc2ccccc2c1)C1=NCCCN1 | > 200 µM | 10 µM |  |
| CC(=O)OCC1OC(n2c(C#N)cc(=O)[nH]c2=O)CC1OC(C)=O (stereo unspecified) | > 200 µM | 57.5 µM |  |
| O=[N+]([O-])c1ccc2[nH]ncc2c1Cl | > 200 µM | 9.77 µM |  |
